Data taken from patent publication US6465527B1, “Iodinated hydrocarbon pesticide” (priority 1999, dated 2002).
“Also recorded” adds a separate entry of the source.

Key:
Format in all cases: in vivo
[1] = tested on: American cockroach, Periplaneta americana (L.); experiment: Fumigant toxicity in sealed glass jar, American cockroach; conditions: 8-36 adult males
[2] = tested on: Cowpea weevil, Callosobruchus maculatus (F.); experiment: Fumigant toxicity, Cowpea weevil; parameters: concentration or dose not given beside the values; conditions: 30 adults
Experimental: Shown in Table 2 is the toxicity of both monoiodinated and diiodinated hydrocarbons to the German and American cockroach and the Cowpea weevil after 24 hours of exposure.

Heterodera glycines = experiment: Greenhouse nematicide test, diiodinated C2-C8 hydrocarbons in infested field soil (Experiments 1 and 2)
Meloidogyne arenaria = experiment: as above
[3] = tested on: 'Brim' soybean [Glycine max]; experiment: Soybean growth in treated soil (Experiments 1 and 2)
Experimental: Additionally, the nematicidal properties of iodinated hydrocarbons were investigated in greenhouse experiments with field soil infested with Meloidogyne arenaria and Heterodera Glycines. Chemicals were added directly to infested solid at rates <100 mg/Kg soil. Treated soil was kept moist (approximately 60 percent field capacity) and uncovered for 7-10 days when samples were collected, and the pots were planted with ‘Brim’ soybean, Glycine max. […] 1,2-diiodoethane (C2), 1,3-diiodopropane (C3), 1,4-diiodobutane (C4), 1,5-diiodopentane (C5), 1,6-diiodohexane (C6), and […] were applied to soil rates of 2.5, 5.0, 7.5, and 10 mg/Kg soil. All rates of C2 and C8 were ineffective in reducing M. arenaria juvenile (J2) populations in preplant samples. This was also true for C2 and J2 populations of H. glycines; however, […] rates ≧5.0 mg suppressed J2 populations of H. glycines. […] H. glycines J2 numbers in final soil samples were generally inversely related to rates for C3-C8. […] Applications of C3-C6 to soil increased shoot weights in a manner directly related to dosages but only in a curvilinear pattern.
In this experiment, the nematicidal properties of various diiodinated hydrocarbons were compared. The nematicidal properties of diiodinated C2-C8 normal hydrocarbons was assessed in a greenhouse experiment with field soil infested with Meloidogyne arenaria [Ma] and Heterodera glycines [Hg]. 1,2-diiodoethane [C2], 1,3-diiodopropane [C3], 1,4-diiodobutane [C4], 1.5-diiodopentane [C5], 1,6-diiodohexane [C6] and 1,8-diiodooctane [C8] were applied to soil at rates of 2.5, 5.0, 7.5, and 10.0 mgs/kg soil. The potted soil was kept moist in a greenhouse for 10 days when preplant samples were collected for analysis, and the pots were planted with ‘Brim’ soybean [Glycine max]. After 7 weeks of growth, the plants were removed and final soil samples taken. Data was collected on weights of fresh roots and shoots, root galling by Ma, and numbers of nematodes in soil and roots. All rates of C2 and C8 were ineffective in reducing Ma juvenile [J2] populations in the preplant samples. This was also true for C2 and J2 populations of Hg; however, C8 rates ≧5.0 mg suppressed J2 populations of Hg. […] Hg J2 numbers in final soil samples were generally inversely related to rates for C3-C8. This pattern of suppression in J2 numbers was also applicable to Ma in the final soil samples but only for C3-C6. […] Applications of C3-C6 to soil increased shoot weights in a manner directly related to dosages but non-linear in pattern.

'Brim' soybean = experiment: Soybean growth and root condition in treated soil (Experiment 5)
Experimental: In this experiment, the nematotoxic properties of ethylene diiodide were compared to that of methyl iodide. The nematicidal efficacies of iodomethane [IM] and ethylene diiodide [EDI] were compared in a greenhouse experiment using field soil infested with Meloidogyne arenaria, Pratylenchus brachyurus, and Paratrichodorus christiei.
Each compound was added to soil at rates of 100, 200, 300 and 400 mg s/kg of soil. The soil was potted and kept moist for two weeks when it was planted with ‘Brim’ soybean after taking samples for nematological analyses. After eight weeks of growth, the plants were removed from the pots and soil samples taken. Data was collected on weights of fresh roots and shoots, general appearance of roots [root condition index] and root gall formation by M. arenaria. All EDI rates eliminated M. arenaria juveniles [J2] and populations of the other nematodes in the preplant samples; IM reduced J2 numbers by 50-70%, eliminated P. christiei with the 400 mg rate, but had no effect on P. brachyurus. […] The general appearance of roots was improved by EDI at rates ≦300 mg, but MI had no effect on the variable. […] M. arenaria J2 populations in roots were reduced by 60-70% by MI treatments, but the compound had no effect on root populations of P. brachyurus. MI had no effect on J2 populations in the final soil samples, although it suppressed P. christiei, by 50-70%.

[4] = all rates (2.5, 5.0, 7.5, 10 mg/Kg soil)

ICCI [1,2-diiodoethane]
% Mortality after 1 h exposure, American cockroach ([1]; 1 h exposure): 8% | % Mortality after 24 h exposure, American cockroach ([1]; 24 h exposure): 100% | % Mortality after 24 h exposure, Cowpea weevil [2]: 100% | H. glycines J2 populations in preplant samples (Heterodera glycines; [4]): ineffective | H. glycines J2 numbers in final soil samples (Heterodera glycines; final soil samples after soybean growth, rates 2.5-10 mg/kg soil, listed as C2): either no change in H. glycines J2 numbers or in increased numbers; also recorded: either no change in Hg J2 numbers or in increased numbers | H. glycines J2 populations in preplant samples (Heterodera glycines; rates ≧5.0 mg): suppressed | M. arenaria juvenile (J2) populations in preplant samples (Meloidogyne arenaria; [4]): ineffective | M. arenaria J2 numbers in final soil samples (Meloidogyne arenaria; final soil samples after soybean growth, rates 2.5-10 mg/kg soil): increased directly with C2 dosage | Shoot weights of soybean ([3]; 2.5 mg rate): increased shoot weights slightly | Shoot weights of soybean ([3]; rates higher than 2.5 mg): no significant effect | Phytotoxicity to soybean ('Brim' soybean; 400 mg): phytotoxic | General appearance of roots [root condition index] ('Brim' soybean; rates ≦300 mg): improved
